# Data published in PMC10974294, “Addressing the ADME Challenges of Compound Loss in a PDMS-Based Gut-on-Chip Microphysiological System” (Pharmaceutics, 2024).
# Where a name gives a salt, the structure may show the parent alone.
# Columns and labels:
# [1] = Compound loss (PDMS ad- and absorption) in cell-free organ-chips; format: in vitro ADME; details: for Compound Loss Bottom Channel (%) / Compound Loss Top Channel (%): 10 µM per drug in cocktail, outlet vs inlet after one hour at 200 µL/h, mean of two experiments
# Text: S-1® Organ-Chips from Emulate Inc. (Boston, MA, USA) comprise 2 parallel channels (top and bottom) for cell culture, which are superimposed and separated via a porous membrane, all made of polydimethylsiloxane (PDMS). The 50 µm thick membrane contains pores of a diameter of 7 µm, which are spaced 40 µm apart from each other. In addition, 2 more channels, in which a vacuum can be applied to laterally stretch the cell culture channels, flank the cell culture channels horizontally. The top channel has a size of 1000 × 1000 µm (width × height), a culture area of 28 mm^2, and a volume of 28 µL. The bottom channel has a size of 1000 × 200 µm (width × height), a culture area of 24.5 mm^2, and a volume of 5.6 µL. Both channels share an area of 17.1 mm^2 of the porous membrane as a coculture area. To conduct experiments, each organ-chip is inserted into a cell culture container called Pod®, which connects 4 physically separated fluid reservoirs with the in- and outlets of the top and bottom channels. […] The Zoë module controls, as well as regulates, the vacuum and pressured gas flows generated by the Orb hub module, which also powers the Zoë module.
# Compound loss experiments in cell-free organ-chips were performed with used chips after removal of the cells and washing-out of previously perfused compounds (Section 4). […] The compound concentrations in the outlets were measured via liquid chromatography-tandem mass spectrometry (LC-MS/MS, Section 2.8) after a period of one hour, with a flow rate of 200 µL/h (manufacturer’s instruction), and relatively compared to the inlet concentrations, and the difference was reported as the percent drug absorbed. The experiments were performed in duplicate.
# Caco-2/HUVEC gut-on-chip [2] = test: Metabolite identification in Caco-2/HUVEC gut-on-chip; details: for fraction of the total amount of all metabolites (peak areas): testosterone 10 µM perfused 2 h at 200 µL/h, top and bottom outlets
# Description: The analysis was performed on an LC-MS system containing a Vanquish UPLC (ThermoFisher Scientific, San Jose, CA, USA) coupled to an Orbitrap FusionTribrid high-resolution mass spectrometer (ThermoFisher Scientific). The structural elucidation was based on exact mass measurements in combination with the interpretation of fragment spectra.
# P-gp [3] = test: Bidirectional permeability assay in Caco-2/HUVEC gut-on-chip; format: cell-based, human; details: human, pH 7.4; Caco-2/HUVEC gut-on-chip, day 10; 10 µM; no inhibitor; read-out: efflux ratio, control
# Description: (§1) The Caco-2/HUVEC gut-on-chip was prepared according to the Caco-2/HUVEC gut-on-chip protocol provided by Emulate Inc. Briefly, on day −1 of the protocol, the PDMS membrane was activated using Emulate reagent (ER) 1 dissolved in ER 2 solution at a concentration of 0.5 mg/mL. The top channels were filled with 50 µL and the bottom channels with 20 µL of ER 1 solution and then treated under UV light for 10 min. Next, activated ER 1 solution was aspirated from both channels and exchanged with fresh ER 1 solution after which the chips were again exposed to UV light for 5 min. The two channels were then subsequently washed with ER 2 solution followed by ice-cold PBS. After the PBS was fully aspirated from both channels, the chips were coated with 100 µg/mL Matrigel and 30 µg/mL collagen type I in PBS overnight at 37 °C. On day 0 of the protocol, both channels were washed with HUVEC culture medium before 0.14 × 10^6 viable HUVECs in 20 µL HUVEC culture medium were seeded in the bottom channel. The chips were inverted and HUVECs were allowed to adhere for at least 2 h to the porous PDMS membrane. Afterwards, the chips were inverted again, and the top channel was filled with enough Caco-2 culture medium to also cover the in- and outlets (~100 µL). Caco-2 cells were seeded in the top channel (0.15 × 10^6 viable cells in 50 µL Caco-2 culture medium). […]
# P-gp [4] = test: in vitro; details: human, Caco-2
# Description: Either the top (A–B direction) or bottom (B–A direction) channel served as the donor compartments and the respective other channels (A–B: bottom; B–A: top) as receiver compartments. […] Following an Emulate protocol, dosing of a cocktail of both compounds at 10 µM in transporter buffer was initiated via a drug introduction step (flow rate of 600 µL/h for 10 min), after which the outlets were aspirated. The outlet concentrations were determined after one hour (flow rate: 200 µL/h). […] The samples from the receiver outlets were used for the bioanalysis without dilution. The samples from the donor inlets, as well as outlets, were diluted 1:50 (v/v) in transport buffer. All samples were spiked with the internal standard and used for the LC-MS/MS analysis, as described in Section 2.8.
# Caco-2/HUVEC gut-on-chip [5] = test: Bidirectional permeability assay in Caco-2/HUVEC gut-on-chip; format: cell-based, human; details: coperfusion with elacridar 10 µM in Caco-2/HUVEC gut-on-chip
# Description: as §1
# P-gp [6] = target: T1, P-gp (Homo sapiens, UniProt P08183); test: Inhibition of P-gp mediated Quinidine efflux in MDCK-MDR1 cells; format: cell-based; details: probe quinidine, Supplementary Table S2
# T1 construct: expressed in transfected cells; host or cells: MDCK-MDR1 cells
# [7] = Time-resolved testosterone loss and chip-specific clearance in cell-free organ-chips
# Description: The cell-free organ-chips were previously utilized in experiments with cells and were prepared in the same way as described for the compound loss studies above. The Caco-2/HUVEC gut-on-chip was cultivated under the conditions described for standard cell culture until day 13. […] An introduction step with a high flow rate of 600 µL/h is recommended by the manufacturer to “saturate” the ad- and absorptions of compounds by the PDMS material. The necessity of this step will be discussed in Section 3 and Section 4. After the introduction step, both outlets were aspirated. […] During the sampling, the flow was stopped for a few seconds, a Pod®, which included a chip, was removed from the Zoë, a single chip removed from the Pod®, and samples were taken. The samples from the bottom outlet were used directly for bioanalytical quantification. The samples from the top inlet and top outlet were sampled from the respective reservoirs and diluted 1:50 (v/v) in transport buffer. The chips were subsequently dismantled from the Pods, and samples from the top channel and bottom channel were taken with a pipette via the outlets (Figure 1A). The samples from the top channel were diluted 1:50 (v/v) and the samples from the bottom channel 1:2 (v/v) in transport buffer.
# The outlet reservoirs contained, therefore, perfusates from time zero to time point t. […] A period of 60 min was chosen because it was recommended by the manufacturer for diverse applications. […] For time points before 60 min, Ct,last was identical to Ct,cum by definition. Vt is the total volume of perfusate collected from time zero to t. Vt was calculated with the following equation:(4) Vt=t÷60×Q
# The time profiles of Ct,last in the cell-free organ-chips and in the Caco-2/HUVEC gut-on-chip are shown in Figure 6A,B. Using Ct,last, the compound loss can be calculated in each putative collecting period of 60 min with the following equation:(5) Losst=Cinlet−Ct, last, top−Ct, last, bottom×Q
# Caco-2/HUVEC gut-on-chip [8] = test: Time-resolved testosterone loss, clearance, permeability and mass balance in Caco-2/HUVEC gut-on-chip
# Description: The Caco-2/HUVEC gut-on-chip was prepared according to the Caco-2/HUVEC gut-on-chip protocol provided by Emulate Inc. Briefly, on day −1 of the protocol, the PDMS membrane was activated using Emulate reagent (ER) 1 dissolved in ER 2 solution at a concentration of 0.5 mg/mL. The top channels were filled with 50 µL and the bottom channels with 20 µL of ER 1 solution and then treated under UV light for 10 min. Next, activated ER 1 solution was aspirated from both channels and exchanged with fresh ER 1 solution after which the chips were again exposed to UV light for 5 min. The two channels were then subsequently washed with ER 2 solution followed by ice-cold PBS. After the PBS was fully aspirated from both channels, the chips were coated with 100 µg/mL Matrigel and 30 µg/mL collagen type I in PBS overnight at 37 °C. On day 0 of the protocol, both channels were washed with HUVEC culture medium before 0.14 × 10^6 viable HUVECs in 20 µL HUVEC culture medium were seeded in the bottom channel. The chips were inverted and HUVECs were allowed to adhere for at least 2 h to the porous PDMS membrane. Afterwards, the chips were inverted again, and the top channel was filled with enough Caco-2 culture medium to also cover the in- and outlets (~100 µL). Caco-2 cells were seeded in the top channel (0.15 × 10^6 viable cells in 50 µL Caco-2 culture medium). Caco-2 cells were also allowed to adhere for 2 h and then the channels were filled with the respective media and incubated overnight at 37 °C. On day 1, the inlet reservoirs of the Pods were filled with 3 mL of the respective degassed media, and the chips were connected to the Pods. The Pods were then placed into the Zoë module, and a flow at a rate of 30 µL/h (manufacturer’s instruction) was applied for both channels. From day 3 onwards, the HUVECs were cultured in HUVEC culture medium but with 0.5% FCS. On day 3, 10% lateral, peristalsis-like stretch was activated with a frequency of 0.15 Hz (manufacturer’s instruction). On day 8, the FCS concentration in the Caco-2 culture medium was reduced from 20% to 10%. Medium reservoirs were replenished with fresh medium 2–3 times per week.
# The cell-free organ-chips were previously utilized in experiments with cells and were prepared in the same way as described for the compound loss studies above. The Caco-2/HUVEC gut-on-chip was cultivated under the conditions described for standard cell culture until day 13. […] An introduction step with a high flow rate of 600 µL/h is recommended by the manufacturer to “saturate” the ad- and absorptions of compounds by the PDMS material. […] The samples from the bottom outlet were used directly for bioanalytical quantification. […]
# A quantitative bioanalysis was performed with a fit-for-purpose assay using protein precipitation followed by LC-MS/MS. […]
# [9] = cell-free organ-chips, testosterone 10 µM, 200 µL/h
# T1 sequence (P08183 whole entry): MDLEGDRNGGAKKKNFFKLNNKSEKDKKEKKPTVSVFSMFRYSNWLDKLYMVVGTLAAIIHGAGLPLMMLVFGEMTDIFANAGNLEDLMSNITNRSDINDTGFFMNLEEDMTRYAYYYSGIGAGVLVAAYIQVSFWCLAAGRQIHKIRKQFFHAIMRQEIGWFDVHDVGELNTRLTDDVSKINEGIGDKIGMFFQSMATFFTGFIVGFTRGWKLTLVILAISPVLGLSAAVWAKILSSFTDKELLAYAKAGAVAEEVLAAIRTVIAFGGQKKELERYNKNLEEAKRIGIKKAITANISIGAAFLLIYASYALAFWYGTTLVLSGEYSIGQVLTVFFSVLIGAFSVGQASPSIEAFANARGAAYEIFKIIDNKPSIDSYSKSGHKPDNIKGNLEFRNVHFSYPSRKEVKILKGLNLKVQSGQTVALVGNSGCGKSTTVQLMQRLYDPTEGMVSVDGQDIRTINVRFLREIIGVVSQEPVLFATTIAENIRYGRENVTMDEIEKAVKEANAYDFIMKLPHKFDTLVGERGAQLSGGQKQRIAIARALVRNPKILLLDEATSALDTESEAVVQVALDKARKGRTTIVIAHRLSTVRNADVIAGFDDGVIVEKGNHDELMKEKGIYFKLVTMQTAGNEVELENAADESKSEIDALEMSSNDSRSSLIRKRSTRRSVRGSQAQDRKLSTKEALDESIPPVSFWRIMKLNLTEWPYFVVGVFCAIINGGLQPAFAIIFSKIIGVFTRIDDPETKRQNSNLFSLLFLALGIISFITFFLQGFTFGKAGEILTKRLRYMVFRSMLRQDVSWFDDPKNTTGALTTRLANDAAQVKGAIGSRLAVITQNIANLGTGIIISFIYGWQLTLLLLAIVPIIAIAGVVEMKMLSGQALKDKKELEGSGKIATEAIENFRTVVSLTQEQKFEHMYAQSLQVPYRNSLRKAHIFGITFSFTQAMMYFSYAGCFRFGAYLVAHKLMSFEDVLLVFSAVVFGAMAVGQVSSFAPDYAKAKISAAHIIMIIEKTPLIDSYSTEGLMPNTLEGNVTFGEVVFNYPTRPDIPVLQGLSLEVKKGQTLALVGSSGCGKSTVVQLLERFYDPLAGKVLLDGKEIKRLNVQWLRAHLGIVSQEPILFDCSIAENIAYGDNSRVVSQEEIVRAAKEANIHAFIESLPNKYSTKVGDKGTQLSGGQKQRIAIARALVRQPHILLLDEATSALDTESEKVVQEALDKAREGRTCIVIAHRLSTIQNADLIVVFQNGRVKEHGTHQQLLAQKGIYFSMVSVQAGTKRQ
SMILES,Compound Loss Bottom Channel (%) ([1]; cell-free organ-chips),Compound Loss Top Channel (%) ([1]; cell-free organ-chips),other results
C[C@]12CCC(=O)C=C1CC[C@@H]1[C@@H]2CC[C@]2(C)C(=O)CC[C@@H]12 [4-androstenedione],,,"compound loss in cell-free organ-chips (in words, relative to testosterone) ([1]; Supplementary Table S1): much higher compound loss; fraction of the total amount of all metabolites (peak areas) (Caco-2/HUVEC gut-on-chip [2]): 96.5%"
Cc1nnc2n1-c1sc(CCC(=O)N3CCOCC3)cc1C(c1ccccc1Cl)=NC2 [Apafant],8.0,15.0,"efflux ratio at 1 h, 10 µM (P-gp [3]): 22.2; efflux ratio (P-gp [4]): 12.4 ± 7.8"
CC(C)c1c(C(=O)Nc2ccccc2)c(-c2ccccc2)c(-c2ccc(F)cc2)n1CC[C@@H](O)C[C@@H](O)CC(=O)O [Atorvastatin],7.4,18.9,
Cc1c(-c2ccc(O)cc2)n(Cc2ccc(OCCN3CCCCCC3)cc2)c2ccc(O)cc12 [Bazedoxifene],26.0,56.4,
O=C1CC2(CCCC2)CC(=O)N1CCCCN1CCN(c2ncccn2)CC1 [Busiprone],30.5,33.1,
COc1cc2c(cc1OC)CN(CCc1ccc(NC(=O)c3cccc4c(=O)c5cccc(OC)c5[nH]c34)cc1)CC2 [Elacridar],,,inhibition of the efflux of Apafant (Caco-2/HUVEC gut-on-chip [5]): completely; IC90 (P-gp [6]): ~1000 nM
O=C1[C@H](CC[C@H](O)c2ccc(F)cc2)[C@@H](c2ccc(O)cc2)N1c1ccc(F)cc1 [Ezetemibe],1.3,0.0,
CCOC(=O)C1=C(C)NC(C)=C(C(=O)OC)C1c1cccc(Cl)c1Cl (centres unmarked) [Felodipine],84.0,79.0,
Cc1ncc2n1-c1ccc(Cl)cc1C(c1ccccc1F)=NC2 [Midazolam],67.8,72.1,
CCN(CC)CC#CCOC(=O)C(O)(c1ccccc1)C1CCCCC1 (centres unmarked) [Oxybutynin],100.0,99.9,"PDMS compound loss during the one-hour period (in words) ([1]; cell-free organ-chips, 10 µM, one hour, 200 µL/h, top and bottom channels): complete"
C=C[C@H]1C[N@@]2CC[C@H]1C[C@@H]2[C@@H](O)c1ccnc2ccc(OC)cc12 [Quinidine],13.4,0.3,
CC(C)c1nc(N(C)S(C)(=O)=O)nc(-c2ccc(F)cc2)c1/C=C/[C@@H](O)C[C@@H](O)CC(=O)O [Rosuvastatin],7.9,12.6,
CC(C)(C)NC(=O)[C@@H]1C[C@@H]2CCCC[C@@H]2CN1C[C@@H](O)[C@H](Cc1ccccc1)NC(=O)[C@H](CC(N)=O)NC(=O)c1ccc2ccccc2n1 [Saquinavir],21.9,48.0,
C[C@]12CC[C@H]3[C@@H](CCC4=CC(=O)CC[C@@]43C)[C@@H]1CC[C@@H]2O [Testosterone],35.1,37.6,"final testosterone concentration in the bottom channel and outlet ([7]; cell-free organ-chips, 10 µM via top inlet, 200 µL/h, 135 min): < 1000 nM; testosterone concentration in the top channel and outlet ([7]; cell-free organ-chips, 10 µM via top inlet, 200 µL/h, reached over 135 min): ~ 7000 nM; clearance (chip-specific / chip-intrinsic clearance) ([7]; cell-free organ-chips, collecting period 75-135 min, flow 200 µL/h): 11.7 µL/h; compound loss during the first 60 min of the collecting period [7, 9]: 719.1 pmol/h; compound loss in the last 60 min of the collecting period [7, 9]: 116.5 pmol/h; compound loss corresponding to chip-intrinsic clearance ([7]; corresponds to 11.7 µL/h at flow 200 µL/h): 6%; maximum testosterone concentration (top channel and outlet) (Caco-2/HUVEC gut-on-chip [8]; Caco-2/HUVEC gut-on-chip, 10 µM via top inlet, 200 µL/h, 135 min): < 2000 nM; time to steady state (Caco-2/HUVEC gut-on-chip [8]; Caco-2/HUVEC gut-on-chip, first sample time point): ≤ 15 min; clearance (total) in Caco-2/HUVEC gut-on-chip (Caco-2/HUVEC gut-on-chip [8]; collecting period 75-135 min, flow 200 µL/h): 172.1 µL/h; metabolic clearance in the gut-on-chip (Caco-2/HUVEC gut-on-chip [8]; total clearance minus chip-specific clearance, flow 200 µL/h): 160.4 µL/h; CYP3A4-related hydroxylation of testosterone (Caco-2/HUVEC gut-on-chip [2]; Caco-2/HUVEC gut-on-chip): did not detect"
O[C@@H](COc1cccc2ncccc12)CN1CCN([C@@H]2c3ccccc3[C@@H]3[C@H](c4ccccc42)C3(F)F)CC1 [Zosuquidar],99.0,97.0,"compound loss after 1 h of perfusion ([1]; cell-free organ-chips, 10 µM): ~100%"
C[C@]12CC[C@H]3[C@@H](CCC4=CC(=O)CC[C@@]43C)[C@@H]1CC[C@@H]2O[C@@H]1O[C@H](C(=O)O)[C@@H](O)[C@H](O)[C@H]1O [testosterone glucuronide],,,fraction of the total amount of all metabolites (peak areas) (Caco-2/HUVEC gut-on-chip [2]): 3.2%
C[C@]12CC[C@H]3[C@@H](CCC4=CC(=O)CC[C@@]43C)[C@@H]1CC[C@@H]2OS(=O)(=O)O [testosterone sulfate],,,fraction of the total amount of all metabolites (peak areas) (Caco-2/HUVEC gut-on-chip [2]): 0.3%
